One compound from PMC7010361 (ACS chemical biology, 2019) can be followed below.

Molecules are shown by their SMILES.

The target in this experiment is BRD4 in HeLa cells (Homo sapiens, UniProt O60885). Kind of experiment: Western blot analysis of BRD4 degradation. The class given is cell-based. Conditions: HeLa cells treated 24 h with varying concentrations; GAPDH loading control.

In the case of `Cc1ncsc1-c1ccc(CNC(=O)[C@@H]2C[C@@H](O)CN2C(=O)[C@@H](NC(=O)COCCOCCOCCNC(=O)C[C@@H]2N=C(c3ccc(Cl)cc3)c3c(sc(C)c3C)-n3c(C)nnc32)C(C)(C)C)cc1` [MZ1], the “BRD4 degradation (western blot)” value is recorded as “dose dependent degradation of BRD4”.
